Source: patent US4094966A, “Iodobenzene derivatives and X-ray contrast media containing the same” (priority 1974, dated 1978)

How the values were obtained:
[1] = system: femoral artery; experiment: Effect on the femoral rate of flow (peripheral vasodilatation); type: in vivo, mongrels
Protocol: This test was carried out in Nembutal-anesthetized male or female 7-12 mongrels.
Nembutal was used at a dosage of 30 mg/kg, with Vetranquil pre-medication, (overall intravenous injection of 2.5 mg), respiration was spontaneous.
Rate of flow variations were recorded at the level of the right or left fermoral artery, by means of a Statham electromagnetic sensor.
The injections were made in a collateral of the fermoral artery, downstream of the sensor, by means of a catheter mounted by the retrograde route, so as not to perturb the blood flow.
The injections were made under a constant volume of 1.5 ml administered within 3-5 seconds.
The same volume of an iostonic sodium chloride solution was also injected.

[2] = system: mice; experiment: Acute toxicity determination, intravenous toxicity in mice; type: in vivo, mice (Swiss origin, IOPS mice of OFI strain); details: 24 hours
Protocol: Intravenous toxicity determination was effected in Swiss origin, IOPS mice of OFI strain.
Each dosage level was injected to a lot of 10 mice comprising 5 male and 5 female mice.
Injections were made manually, in the caudal vein, at a rate of 2 ml/minute.
Death rate during the 24 hours after injection was recorded.

[3] = Osmolality determination (FISKE osmometer); type: physicochemical; details: solutions containing 28% iodine; methylglucamine salts; extrapolation from successive dilutions
Protocol: Osmolality is determined by extrapolation of the values obtained on successive dilutions of solutions containing 28% or 38% iodine.
Osmolality readings are made with a FISKE Model 230/D/330 D osmometer. This apparatus indicates this measurement as milliosmoles per kg of solution. Its operation is based on the principles of cryoscopy. The determinations were made with solutions containing 28% iodine.

[4] = Biliary clearance test in cats; type: in vivo; design: scale not given here
Protocol: This test was conducted in male or female adult cats weighing 3-4 kg.
The test material was injected intravenously, at a dosage of 0.10 g/kg iodine at the level of the internal saphenous vein. Clearance of the material was monitored by X-ray control.
X-ray pictures visualizing the gall bladder and the bladder were taken at the following times: 30 minutes, 1 hour, 2 hours, 3 hours, 4 hours, 5 hours, 6 hours.

[5] = 1.5 ml into collateral of femoral artery, 28% I, Mgl salt
[6] = i.v., 0.10 g I/kg, 28% I, Mgl salt

| SMILES | Peripheral vasodilatation, femoral rate of flow [1, 5] | Acute toxicity in mice, i.v. ([2]; 28% I, Mgl salt) | Osmolality [3] | Biliary clearance in cat, i.v. [4, 6] | other results |
| --- | --- | --- | --- | --- | --- |
| CNC(=O)c1c(I)c(NC(=O)CCCNC(=O)c2c(I)c(C(=O)NCCO)c(I)c(N(C)C(C)=O)c2I)c(I)c(C(=O)O)c1I [Compound 7, 2,4,6-triiodo-3-N-methylcarbamyl-5-(2,4,6-triiodo-3-N-hydroxyethylcarbamyl-5-N-methylacetamido-benzoyl)γ-aminobutyrylamino-benzoic acid] | ++ | 5 grams I/kg | 525 mosm/kg | 0 | – |
| CNC(=O)c1c(I)c(C(=O)NCCCCCC(=O)Nc2c(I)cc(I)c(C(=O)O)c2I)c(I)c(N(C)C(C)=O)c1I [Compound 10, 2,4,6-triiodo-5-(2,4,6-triiodo-3-N-methylcarbamyl-5-N-methylacetamido-benzoyl)-ε-aminocaproylamino-benzoic acid] | ++++ | 1.5 grams I/kg | 420 mosm/kg | ++++ | – |
| CNC(=O)c1c(I)c(NC(=O)CCCNC(=O)c2c(I)cc(I)c(N(C)C(C)=O)c2I)c(I)c(C(=O)O)c1I [Compound 11, 2,4,6-triiodo-3-N-methylcarbamyl-5-(2,4,6-triiodo-3-N-methylacetamido-benzoyl)-γ-aminobutyrylaminobenzoic acid] | ++++ | 2.3 grams I/kg | 390 mosm/kg | +++ | – |
| CNC(=O)c1c(I)c(NC(=O)CNC(=O)c2c(I)c(NC(=O)CNC(=O)c3c(I)c(NC(C)=O)c(I)c(C(=O)NC)c3I)c(I)c(N(C)C(C)=O)c2I)c(I)c(C(=O)O)c1I [Compound 16, 2,4,6-triiodo-3-N-methylcarbamyl-5-[2,4,6-triiodo-3-N-methylacetamido-5-(2,4,6-triiodo-3-N-methylcarbamyl-5-acetamido-benzoyl)glycylamino-benzoyl]-glycylamino-benzoic acid] | – | – | 250 mosm/kg | – | Peripheral vasodilatation, femoral rate of flow ([1]; in vivo): +; Biliary clearance in cat, i.v. ([4]; in vivo, iv): 0 |
| CNC(=O)c1c(I)c(NC(=O)CNC(=O)c2c(I)c(NC(=O)CNC(=O)c3c(I)c(C(=O)NC)c(I)c(N(C)C(C)=O)c3I)c(I)c(N(C)C(C)=O)c2I)c(I)c(C(=O)O)c1I [Compound 17, 2,4,6-triiodo-3-N-methylcarbamyl-5-[2,4,6-triiodo-3-N-methylacetamido-5-(2,4,6-triiodo-3-N-methylcarbamyl-5-N-methylacetamido-benzoyl)glycyl-aminobenzoyl]-glycyl-amino-benzoic acid] | – | – | 200 mosm/kg | – | Peripheral vasodilatation, femoral rate of flow ([1]; in vivo): ++; Biliary clearance in cat, i.v. ([4]; in vivo, iv): 0 |
| CNC(=O)c1c(I)c(NC(=O)CNC(=O)c2c(I)cc(I)c(N(C)C(C)=O)c2I)c(I)c(C(=O)O)c1I [Compound 18, 2,4,6-triiodo-3-N-methylcarbamyl-5-(2,4,6-triiodo-3-N-methylacetamido-benzoyl-glycyl)-amino-benzoic acid] | ++++ | – | 390 mosm/kg | ++++ | – |
| CNC(=O)c1c(I)c(C(=O)NCC(=O)Nc2c(I)cc(I)c(C(=O)O)c2I)c(I)c(N(C)C(C)=O)c1I [Compound 19, 2,4,6-triiodo-5-(2,4,6-triiodo-3-N-methylcarbamyl-5-N-methylacetamido-benzoyl) glycylamino-benzoic acid] | ++++ | 4 grams I/kg | 500 mosm/kg | ++++ | – |
| CC(=O)Nc1c(I)c(NC(=O)CNC(=O)c2c(I)c(NC(C)=O)c(I)c(N(C)C(C)=O)c2I)c(I)c(C(=O)O)c1I [Compound 20, 2,4,6-triiodo-3-acetamido-5-(2,4,6-triiodo-3-N-methylacetamido-5-acetamido-benzoyl)-glycylaino-benzoic acid] | – | – | 755 mosm/kg | – | Peripheral vasodilatation, femoral rate of flow ([1]; 1.5 ml into collateral of femoral artery, 28 and 38% I, Na salt): +; Acute toxicity in mice, i.v. ([2]; 28 and 38% I, Na salt): 7.5 grams I/kg |
| CNC(=O)c1c(I)c(NC(C)=O)c(I)c(C(=O)NCC(=O)N(C)c2c(I)cc(I)c(C(=O)O)c2I)c1I [Compound 21, 2,4,6-triiodo-3-(2,4,6-triiodo-3-N-methylcarbamyl-5-acetamido-benzoyl)glycyl-N-methylamino-benzoic acid] | – | – | 580 mosm/kg | – | Peripheral vasodilatation, femoral rate of flow ([1]; 1.5 ml into collateral of femoral artery, 20% I, Mgl salt): ++++; Acute toxicity in mice, i.v. ([2]; 20% I, Mgl salt): 4-5 grams I/kg; Biliary clearance in cat, i.v. ([4]; i.v., 0.10 g I/kg, 20% I, Mgl salt): +++ |
| CNC(=O)c1c(I)c(C(=O)NC(C)C(=O)Nc2c(I)cc(I)c(C(=O)O)c2I)c(I)c(N(C)C(C)=O)c1I (stereo not drawn) [Compound 23, 2,4,6-triiodo-3-(2,4,6-triiodo-3-N-methyl-carbamyl-5-N-methylacetamido-benzoyl)-α-aminoproionylamino-benzoic acid] | +++ | 3.5 grams I/kg | 535 mosm/kg | ++++ | – |
| CNC(=O)c1c(I)c(C(=O)NCC(=O)Nc2c(I)c(NC(C)=O)c(I)c(C(=O)O)c2I)c(I)c(N(C)C(C)=O)c1I [Compound 25, 2,4,6-triiodo-3-acetamido-5-(2,4,6-triiodo-3-N-methylcarbamyl-5-N-methylacetamido-benzoyl)glycylamino-benzoic acid] | – | – | 925 mosm/kg | – | Peripheral vasodilatation, femoral rate of flow ([1]; 1.5 ml into collateral of femoral artery, 34% I, Na salt): ++; Acute toxicity in mice, i.v. ([2]; 34% I, Na salt): 9 grams I/kg; Biliary clearance in cat, i.v. ([4]; i.v., 0.10 g I/kg, 34% I, Na salt): 0 |
| CNC(=O)c1c(I)c(NC(C)=O)c(I)c(C(=O)NCC(=O)Nc2c(I)c(C(=O)O)c(I)c(N(C)C(C)=O)c2I)c1I [Compound 26, 12,4,6-triiodo-3-N-methylacetamido-5-(2,4,6-triiodo-3-N-methylcarbamyl-5-acetamido-benzoyl)-glycylamino-benzoic acid] | – | – | 500 mosm/kg | – | Peripheral vasodilatation, femoral rate of flow ([1]; 1.5 ml into collateral of femoral artery, 38% I, Na salt): ++; Acute toxicity in mice, i.v. ([2]; 38% I, Na salt): 13 grams I/kg; Biliary clearance in cat, i.v. ([4]; i.v., 0.10 g I/kg, 38% I, Na salt): 0 |
| CNC(=O)c1c(I)c(NC(=O)CNC(=O)c2c(I)c(NC(=O)C(O)C(O)C(O)C(O)CO)c(I)c(C(=O)NC)c2I)c(I)c(C(=O)O)c1I (stereo not shown) [Compound 35, 2,4,6-triiodo-3-N-methylcarbamyl-5-(2,4,6-triiodo-3-N-methylcarbamyl-5-gluconylamino-benzoyl)glycylamino-benzoic acid] | + | 8 grams I/kg | – | 0 | – |
| CNC(=O)c1c(I)c(NC(=O)C(O)C(O)C(O)C(O)CO)c(I)c(C(=O)NCC(=O)Nc2c(I)c(C(=O)O)c(I)c(C(=O)NCCO)c2I)c1I (stereo not shown) [Compound 36, 2,4,6-triiodo-3-hydroxyethylcarbamyl-5-(2,4,6-triiodo-3-N-methylcarbamyl-5-glyconylamino-benzoyl) glycylamino-benzoic acid] | ++ | 8 grams I/kg | – | 0 | – |
| CNC(=O)c1c(I)c(C(=O)NCCCC(=O)N(C)c2c(I)c(C(=O)O)c(I)c(C(=O)NC)c2I)c(I)c(N(C)C(C)=O)c1I [Compound 37, 2,4,6-triiodo-3-N-methylcarbamyl-5-(2,4,6-triiodo-3-N-methylcarbamyl-5-N-methylacetamido-benzoyl)-γ-aminobutyryl-N-methylamino-benzoic acid] | ++++ | < 6 grams I/kg | 730 mosm/kg | ++ | – |
| CNC(=O)c1c(I)c(NC(C)=O)c(I)c(C(=O)NCC(=O)N(C)c2c(I)c(C(=O)O)c(I)c(C(=O)NCCO)c2I)c1I [Compound 38, 2,4,6-triiodo-3-N-hydroxyethylcarbamyl-5-(2,4,6-triiodo-3-N-methylcarbamyl-5-acetamido-benzoyl)-glycyl-N-methylamino-benzoic acid] | – | – | 635 mosm/kg | – | – |
| CC(=O)Nc1c(I)c(NC(C)=O)c(I)c(C(=O)O)c1I [d, 2,4,6-Triiodo-3,5-bis-(acetamido)-benzoic acid, reference compound] | – | – | – | – | Peripheral vasodilatation, femoral rate of flow ([1]; in vivo): +++; Acute toxicity in mice, i.v. ([2]; 38% I, mixed Mgl and Na salt): 5.7 grams I/kg; Biliary clearance in cat, i.v. ([4]; i.v., 0.10 g I/kg, 38% I, mixed Mgl and Na salt): 0 |
| O=C(CCCCC(=O)Nc1c(I)cc(I)c(C(=O)O)c1I)Nc1c(I)cc(I)c(C(=O)O)c1I [e, 3,3'-Adipoyldiimino-bis(2,4,6-triiodobenzoic) acid, reference compound] | ++++ | 2 grams I/kg | – | – | Biliary clearance in cat, i.v. ([4]; in vivo, iv): ++++ |
